Reference: patent publication US20100087457A1, “DOSAGES AND METHODS FOR THE TREATMENT OF CANCER” (Myriad Pharmaceuticals, Inc, priority 2007, published 2010)
Several values for one entry are separate records, joined by “and”; a condition that tells them apart may be missing. Equal entries are not always repeated. Structures can show the parent of a compound that is named as a salt.

Test: Phase I clinical trial: plasma concentrations after weekly intravenous infusion (pharmacokinetics)
Format: in vivo, human
Settings: LLOQ 1 ng/mL; for Plasma Concentrations 2 HR: 2 hr after infusion; for Plasma Concentrations 4 HR: 4 hr after infusion; for Plasma Concentrations 6 HR: 6 hr after infusion; for Plasma Concentrations 12 HR: 12 hr after infusion; for Plasma Concentrations 24 HR: 24 hr after infusion; for Plasma Concentrations EOI: end of infusion; for Plasma Concentrations PREDOSE: Day 15 (third weekly dose)
Procedure: An open-label, dose-escalating, multiple-dose study to define the safety, tolerability and pharmacokinetics of weekly intravenous administration of (4-Methoxy-phenyl)-methyl-(2-methyl-quinazolin-4-yl)-amine hydrochloride was performed. A dosing schedule (each 4 week cycle) was performed for (4-Methoxy-phenyl)-methyl-(2-methyl-quinazolin-4-yl)-amine hydrochloride weekly for 3 weeks with no infusion on the fourth week of each cycle. Subjects with refractory solid tumors were enrolled in cohorts of 3. During Cycle 1, subjects were hospitalized during each infusion of (4-Methoxy-phenyl)-methyl-(2-methyl-quinazolin-4-yl)-amine hydrochloride and remained for observation and safety evaluation for approximately 24 hours following the end of the infusion. All subjects had continuous telemetry for 2 hours prior to infusion, for 1-2 hour infusion and for 3 hours after the end of the infusion. Any clinically significant electrocardiographic (ECG) wave form abnormality was recorded and prolongation of the monitoring period extended at the discretion of the principal investigator.
Blood samples were collected prior to dosing, at the end of the infusion, and 1, 2, 4, 6, 12, and 24 hours after the infusion. This sampling schedule occurred on Days 1 and 15 with administration of the first and third doses. Samples were collected into tubes containing EDTA and stored on ice until centrifuged. The plasma was frozen at approximately −20° C. in labeled, plastic tubes, or vials, and tightly capped. The samples were shipped to Myriad Pharmaceuticals, Inc. for analysis of (4-Methoxy-phenyl)-methyl-(2-methyl-quinazolin-4-yl)-amine hydrochloride. Pharmacokinetic analysis was conducted using WinNonlin 4.0®.

[1] = Day 1, 0.3 mg/m^2 i.v., infusion 1 hr
[2] = Day 1, 2.1 mg/m^2 i.v., infusion 1 hr, hydrochloride
[3] = Day 1, 2.7 mg/m^2 i.v., infusion 1 hr, hydrochloride
[4] = Day 1, 3.3 mg/m^2 i.v., infusion 2 hr, hydrochloride
[5] = Day 15, 0.3 mg/m^2 i.v., infusion 1 hr
[6] = Day 15, 1.0 mg/m^2 i.v., infusion 1 hr, hydrochloride
[7] = Day 15, 1.0 mg/m^2 i.v., infusion 1 hr
[8] = Day 15, 3.9 mg/m^2 i.v., infusion 2 hr, hydrochloride

SMILES: COc1ccc(N(C)c2nc(C)nc3ccccc23)cc1 [(4-Methoxy-phenyl)-methyl-(2-methyl-quinazolin-4-yl)-amine hydrochloride]
- Plasma Concentrations 1 HR (Day 1, 0.3 mg/m^2 i.v., infusion 1 hr, 1 hr after infusion, hydrochloride): 1.17 ng/mL and 1.25 ng/mL
- Plasma Concentrations 2 HR [1]: BQL
- Plasma Concentrations 4 HR [1]: BQL
- Plasma Concentrations 6 HR [1]: BQL
- Plasma Concentrations 12 HR [1]: BQL
- Plasma Concentrations 24 HR [1]: BQL
- Plasma Concentrations EOI (Day 1, 0.3 mg/m^2 i.v., infusion 1 hr, hydrochloride): 1.77 ng/mL and 1.52 ng/mL and 2.43 ng/mL
- Plasma Concentrations 24 HR (Day 1, 1.5 mg/m^2 i.v., infusion 1 hr): BQL
- Plasma Concentrations 1 HR (Day 1, 2.1 mg/m^2 i.v., infusion 1 hr, 1 hr after infusion, hydrochloride): 5.53 ng/mL and 3.75 ng/mL
- Plasma Concentrations 2 HR [2]: 4.78 ng/mL and 3.94 ng/mL
- Plasma Concentrations 4 HR [2]: 2.69 ng/mL and 2.41 ng/mL
- Plasma Concentrations 6 HR [2]: 1.62 ng/mL and 1.18 ng/mL
- Plasma Concentrations 24 HR (Day 1, 2.1 mg/m^2 i.v., infusion 1 hr): BQL
- Plasma Concentrations 1 HR (Day 1, 2.7 mg/m^2 i.v., infusion 1 hr, 1 hr after infusion, hydrochloride): 4.69 ng/mL
- Plasma Concentrations 2 HR [3]: 4.03 ng/mL and 5.54 ng/mL
- Plasma Concentrations 4 HR [3]: 2.33 ng/mL and 3.91 ng/mL
- Plasma Concentrations 6 HR [3]: 1.68 ng/mL and 3.11 ng/mL
- Plasma Concentrations EOI [3]: 10.42 ng/mL and 11.10 ng/mL and 7.52 ng/mL
- Plasma Concentrations 2 HR [4]: 10.37 ng/mL and 8.81 ng/mL and 5.19 ng/mL
- Plasma Concentrations EOI [4]: 8.67 ng/mL and 11.97 ng/mL and 13.37 ng/mL and 16.77 ng/mL
- Plasma Concentrations PREDOSE (0.3 mg/m^2 i.v., infusion 1 hr): BQL
- Plasma Concentrations PREDOSE (0.6 mg/m^2 i.v., infusion 1 hr): BQL
- Plasma Concentrations PREDOSE (1.0 mg/m^2 i.v., infusion 1 hr): BQL
- Plasma Concentrations PREDOSE (1.5 mg/m^2 i.v., infusion 1 hr): BQL
- Plasma Concentrations PREDOSE (2.1 mg/m^2 i.v., infusion 1 hr): BQL
- Plasma Concentrations PREDOSE (2.7 mg/m^2 i.v., infusion 1 hr): BQL
- Plasma Concentrations PREDOSE (3.3 mg/m^2 i.v., infusion 2 hr): BQL
- Plasma Concentrations 2 HR [5]: BQL
- Plasma Concentrations 4 HR [5]: BQL
- Plasma Concentrations 6 HR [5]: BQL
- Plasma Concentrations 12 HR [5]: BQL
- Plasma Concentrations 24 HR [5]: BQL
- Plasma Concentrations 1 HR (Day 15, 1.0 mg/m^2 i.v., infusion 1 hr, 1 hr after infusion, hydrochloride): 2.51 ng/mL
- Plasma Concentrations 2 HR [6]: 2.15 ng/mL
- Plasma Concentrations 6 HR [7]: BQL
- Plasma Concentrations 12 HR [7]: BQL
- Plasma Concentrations 24 HR [7]: BQL
- Plasma Concentrations EOI [6]: 8.27 ng/mL and 7.82 ng/mL
- Plasma Concentrations 4 HR (Day 15, 1.5 mg/m^2 i.v., infusion 1 hr, hydrochloride): 1.60 ng/mL and 1.40 ng/mL and 1.30 ng/mL
- Plasma Concentrations 1 HR (Day 15, 2.1 mg/m^2 i.v., infusion 1 hr, 1 hr after infusion, hydrochloride): 6.21 ng/mL and 7.19 ng/mL
- Plasma Concentrations 4 HR (Day 15, 2.1 mg/m^2 i.v., infusion 1 hr, hydrochloride): 3.79 ng/mL
- Plasma Concentrations 1 HR (Day 15, 3.3 mg/m^2 i.v., infusion 1 hr, 1 hr after infusion, hydrochloride): 9.00 ng/mL and 17.56 ng/mL and 15.17 ng/mL
- Plasma Concentrations 1 HR (Day 15, 3.3 mg/m^2 i.v., infusion 2 hr, 1 hr after infusion, hydrochloride): 12.21 ng/mL and 6.40 ng/mL and 7.21 ng/mL
- Plasma Concentrations 2 HR (Day 15, 3.3 mg/m^2 i.v., infusion 2 hr, hydrochloride): 7.50 ng/mL and 5.52 ng/mL and 4.16 ng/mL
- Plasma Concentrations 1 HR (Day 15, 3.9 mg/m^2 i.v., infusion 2 hr, 1 hr after infusion, hydrochloride): 10.97 ng/mL and 12.15 ng/mL and 7.79 ng/mL and 9.85 ng/mL
- Plasma Concentrations 2 HR [8]: 8.48 ng/mL and 14.58 ng/mL and 7.36 ng/mL and 8.35 ng/mL
- Plasma Concentrations 4 HR [8]: 9.13 ng/mL and 7.84 ng/mL and 10.17 ng/mL and 6.81 ng/mL
- Plasma Concentrations 1 HR (Day 15, 4.5 mg/m^2 i.v., infusion 2 hr, 1 hr after infusion, hydrochloride): 17.94 ng/mL and 11.45 ng/mL and 10.03 ng/mL
- Plasma Concentrations 2 HR (Day 15, 4.5 mg/m^2 i.v., infusion 2 hr, hydrochloride): 14.46 ng/mL and 12.32 ng/mL and 8.11 ng/mL
- concentration at 1 h after end of infusion (human, plasma, iv, 0.3 mg/m^2, Day 1, 0.3 mg/m^2 i.v., infusion 1 hr, 1 hr after infusion): 1.03 ng/mL
